29 molecules from patent US11077100B2, “Tetrahydroquinoline derivatives as P2X7 receptor antagonists” (RaQualia Pharma Inc., priority 2017, dated 2021) can be followed below.

For one assay, the target named is rat P2X7 (Rattus norvegicus (Rat), UniProt Q64663). Nature of the assay: Rat P2X7 functional assay (Ca2+ influx, Fluo-4, FDSS). The format is cell-based. The note with it: HEK293 cells stably expressing rat P2X7; BzATP final 10 microM; 7-point dose-response; read-out: Antagonistic activities with respect to the rat P2X7 receptor (IC50). An outline of the steps:
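IC50 derived from 7-point dose-response in duplicate, measuring inhibition of BzATP-evoked (final 10 microM) intracellular Ca2+ increase by Fluo-4 fluorescence on FDSS. Rat P2X7-HEK293 cells were exposed to compound for 10 min in the dark beforehand.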

Another assay has as its target human P2X7 (Homo sapiens (Human), UniProt Q99572). Kind of assay: Human P2X7 functional assay (Ca2+ influx, Fluo-4, FDSS). The format is cell-based. To be noted: antagonistic activity with respect to the human P2X7 receptor; BzATP final concentration 80 microM. An outline of the steps: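 Ca2+ influx was triggered with BzATP (80 μM final) after a 10-min room-temperature compound preincubation and monitored with Fluo-4 (ex 480/em 540 nm) on FDSS. The cells were HEK293 stably carrying FLAG-tagged human P2X7. Duplicate-averaged 7-point dose-responses gave IC50s.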

What is called IC50 is the point on the concentration scale where inhibition reaches its midpoint.

Sequence of human P2X7 (Q99572 whole entry): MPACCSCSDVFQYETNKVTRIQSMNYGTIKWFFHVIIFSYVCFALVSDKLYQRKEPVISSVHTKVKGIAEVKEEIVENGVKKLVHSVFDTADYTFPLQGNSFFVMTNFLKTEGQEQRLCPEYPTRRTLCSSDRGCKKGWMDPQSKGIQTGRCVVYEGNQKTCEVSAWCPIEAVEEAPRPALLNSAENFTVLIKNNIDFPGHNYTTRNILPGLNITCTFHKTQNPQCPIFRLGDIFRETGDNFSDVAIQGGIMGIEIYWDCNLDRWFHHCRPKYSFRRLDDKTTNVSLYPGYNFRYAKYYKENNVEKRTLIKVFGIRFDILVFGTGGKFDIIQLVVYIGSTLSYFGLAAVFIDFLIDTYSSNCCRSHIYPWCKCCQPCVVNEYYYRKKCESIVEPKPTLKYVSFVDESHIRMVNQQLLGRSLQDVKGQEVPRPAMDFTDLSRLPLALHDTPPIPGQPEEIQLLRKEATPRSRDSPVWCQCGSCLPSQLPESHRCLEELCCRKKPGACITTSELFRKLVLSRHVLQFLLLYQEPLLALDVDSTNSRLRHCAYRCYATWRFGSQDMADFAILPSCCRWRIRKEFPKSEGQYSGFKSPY
Sequence of rat P2X7 (Q64663 whole entry): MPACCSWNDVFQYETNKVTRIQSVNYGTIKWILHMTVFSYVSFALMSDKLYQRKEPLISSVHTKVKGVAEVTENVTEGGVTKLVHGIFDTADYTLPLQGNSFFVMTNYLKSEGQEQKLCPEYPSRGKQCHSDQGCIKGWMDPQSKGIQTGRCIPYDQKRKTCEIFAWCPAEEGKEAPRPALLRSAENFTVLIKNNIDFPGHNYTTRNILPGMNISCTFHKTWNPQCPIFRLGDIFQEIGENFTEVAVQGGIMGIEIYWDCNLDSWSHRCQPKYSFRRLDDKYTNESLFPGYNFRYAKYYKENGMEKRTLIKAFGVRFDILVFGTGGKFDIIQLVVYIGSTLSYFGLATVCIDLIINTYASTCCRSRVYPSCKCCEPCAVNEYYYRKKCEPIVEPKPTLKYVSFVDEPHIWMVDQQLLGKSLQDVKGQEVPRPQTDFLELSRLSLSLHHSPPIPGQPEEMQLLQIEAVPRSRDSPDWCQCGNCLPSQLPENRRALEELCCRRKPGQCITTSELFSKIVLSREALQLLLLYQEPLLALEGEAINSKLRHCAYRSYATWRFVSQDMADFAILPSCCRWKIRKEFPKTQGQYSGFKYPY

For `N#CC[C@]1(O)CC[C@@](F)(C(=O)NCc2ccc(Cl)cc2Cl)c2cccnc21` [Example 280, (5S,8R)-8-(cyanomethyl)-N-(2,4-dichlorobenzyl)-5-fluoro-8-hydroxy-5,6,7,8-tetrahydroquinoline-5-carboxamide], the figures for the half-inhibitory concentration (IC50) at rat P2X7 and on human P2X7 were less than 1 µM and less than 0.05 µM, respectively.
The like results for `CO[C@@H]1CC[C@@](F)(C(=O)NCc2c(Cl)cc(Cl)cc2CO)c2cccnc21` [Example 334, (5S,8R)-N-(2,4-dichloro-6-(hydroxymethyl)benzyl)-5-fluoro-8-methoxy-5,6,7,8-tetrahydroquinoline-5-carboxamide] were, in that order, less than 1 µM and less than 0.05 µM.
The like results for `Cc1cc(Cl)cc(Cl)c1CNC(=O)[C@@H]1CC[C@@H](O)c2ncccc21` [Example 84, (5R,8R)-N-(2,4-dichloro-6-methylbenzyl)-8-hy-droxy-5,6,7,8-tetrahydro-quinoline-5-carboxamide] were, in that order, less than 1 µM and less than 0.05 µM.
Consider `O=C(NCc1c(Cl)cc(Cl)cc1C(F)F)[C@]1(F)CC[C@H](O)c2ncccc21` [Example 149, (5S,8S)-N-(2,4-dichloro-6-(difluoromethyl)benzyl)-5-fluoro-8-hydroxy-5,6,7,8-tetrahydroquinoline-5-carboxamide], for which the IC50 is less than 1 µM at rat P2X7 and less than 0.05 µM against human P2X7.
In the same order, the values of `C[C@]1(O)CC[C@@](F)(C(=O)NCc2c(Cl)cc(Cl)cc2CO)c2cccnc21` [Example 261, (5S,8S)-N-(2,4-dichloro-6-(hydroxymethyl)benzyl)-5-fluoro-8-hydroxy-8-methyl-5,6,7,8-tetrahydroquinoline-5-carboxamide] are less than 1 µM and less than 0.05 µM.
With `O=C(NCc1ccc(F)c(Cl)c1Cl)[C@]1(F)CC[C@@](O)(CO)c2ncccc21` [Example 320, (5S,8S)-N-(2,3-dichloro-4-fluorobenzyl)-5-fluoro-8-hydroxy-8-(hydroxymethyl)-5,6,7,8-tetrahydroquinoline-5-carboxamide], the values for the IC50 on rat P2X7 and against human P2X7 were less than 1 µM and less than 0.05 µM, respectively.
In the same order, the values of `O=C(NCc1ccc(Cl)cc1Cl)[C@]1(F)CC[C@H](O)c2c1ccc[n+]2[O-]` [Example 245, (5S,8S)-5-((2,4-dichlorobenzyl)carbamoyl)-5-fluoro-8-hydroxy-5,6,7,8-tetrahydroquinoline 1-oxide] are less than 1 µM and less than 0.05 µM.
On to `C[S+]([O-])C[C@]1(O)CC[C@@](F)(C(=O)NCc2ccc(F)cc2Cl)c2cccnc21` (stereo partly drawn) [Example 296, (5S,8S)-N-(2-chloro-4-fluorobenzyl)-5-fluoro-hydroxy-8-((methylsulfinyl)methyl)-5,6,7,8-tetrahydroquinoline-5-carboxamide], for which the results for the 50% inhibitory concentration (IC50) on rat P2X7 and against human P2X7 were less than 1 µM and 0.05 to 0.1 µM, respectively.
`O=C(NCc1ccc(F)c(F)c1F)[C@]1(F)CC[C@@](O)(CO)c2ncccc21` [Example 308, (5S,8S)-5-fluoro-8-hydroxy-8-(hydroxymethyl)-N-(2,3,4-trifluorobenzyl)-5,6,7,8-tetrahydroquinoline-5-carboxamide]: the IC50 at rat P2X7 was less than 1 µM; on human P2X7, 0.101 to 0.3 µM.
As for `Cc1cc(Cl)cc(Cl)c1CNC(=O)C1(F)CCC(=O)c2ncccc21` (stereo not shown) [Example 12, N-(2,4-dichloro-6-methylbenzyl)-5-fluoro-8-oxo-5,6,7,8-tetrahydroquinoline-5-carboxamide], the IC50 on rat P2X7 was less than 1 µM; at human P2X7 it was less than 0.05 µM.
Regarding `O=C(NC1CCOc2cc(Cl)cc(Cl)c21)[C@]1(F)CC[C@H](O)c2ncccc21` (stereo partly drawn) [Example 230, (5S,8S)-N-(5,7-dichlorochroman-4-yl)-5-fluoro-8-hydroxy-5,6,7,8-tetrahydroquinoline-5-carboxamide], the results for the IC50 at rat P2X7 and on human P2X7 were less than 1 µM and less than 0.05 µM, respectively.
On to `O=C(NCc1ccc(F)cc1Cl)[C@]1(F)CC[C@@](O)(CF)c2ncccc21` [Example 286, (5S,8S)-N-(2-chloro-4-fluorobenzyl)-5-fluoro-8-(fluoromethyl)-8-hydroxy-5,6,7,8-tetrahydroquinoline-5-carboxamide], for which the IC50 was less than 1 µM at rat P2X7 and less than 0.05 µM at human P2X7.
The like results for `O=C(NCc1ccc(Cl)c(F)c1F)[C@]1(F)CC[C@H](O)c2ncccc21` [Example 183, (5S,8S)-N-(4-chloro-2,3-difluorobenzyl)-5-fluoro-8-hydroxy-5,6,7,8-tetrahydroquinoline-5-carboxamide] were, in that order, less than 1 µM and less than 0.05 µM.
As to `COC[C@]1(O)CC[C@@](F)(C(=O)NCc2ccc(Cl)cc2Cl)c2cccnc21` (relative stereo) [Example 41, (5S*,8S*)-N-(2,4-dichlorobenzyl)-5-fluoro-8-hydroxy-8-(methoxymethyl)-5,6,7,8-tetrahydro-quinoline-5-carboxamide], the 50% inhibitory concentration (IC50) on rat P2X7 was less than 1 µM; against human P2X7, less than 0.05 µM.
As to `COCc1cc(Cl)cc(Cl)c1CNC(=O)C1(F)CCC(O)c2ncccc21` (stereo not shown) [Example 23, N-(2,4-dichloro-6-(methoxy-methyl)benzyl)-5-fluoro-8 hydroxy-5,6,7,8-tetrahydro-quinoline-5-carboxamide], the IC50 at rat P2X7 is less than 1 µM; against human P2X7 it was less than 0.05 µM.
The like results for `CO[C@H]1CC[C@@](F)(C(=O)NCc2ccc(F)cc2F)c2cccnc21` [Example 342, (5S,8S)-N-(2,4-difluorobenzyl)-5-fluoro-8-methoxy-5,6,7,8-tetrahydroquinoline-5-carboxamide] were, in that order, less than 1 µM and 0.05 to 0.1 µM.
Regarding `O=C(NCc1ccc(Br)cc1F)[C@@H]1CC[C@H](O)c2ncccc21` [Example 80, (5R,8S)-N-(4-bromo-2-fluorobenzyl)-8-hydroxy-5,6,7,8-tetrahydroquinoline-5-carboxamide], the half-maximal inhibitory concentration (IC50) was less than 1 µM on rat P2X7 and 0.05 to 0.1 µM against human P2X7.
In the case of `O=C(NCc1ccc(Cl)cc1Cl)[C@@]1(F)CC[C@](O)(CO)c2ncccc21` [Example 302, (5R,8R)-N-(2,4-dichlorobenzyl)-5-fluoro-8-hydroxy-8-(hydroxymethyl)-5,6,7,8-tetrahydroquinoline-5-carboxamide], the half-inhibitory concentration (IC50) was less than 1 µM on rat P2X7 and 0.101 to 0.3 µM against human P2X7.
Turning to `C=C1CC(C(=O)NCc2c(C)cc(Cl)cc2Cl)c2cccnc21` (stereo not shown) [Example 11, N-(2,4-dichloro-6-methyl-benzyl)-7-methylene-6,7-dihydro-5H-cyclopenta [b]pyridine-5-carboxamide], the IC50 at rat P2X7 is less than 1 µM; against human P2X7, less than 0.05 µM.
In the same order, the values of `O=C(NCc1cccc(Cl)c1Cl)[C@]1(F)CC[C@H](O)c2ncccc21` [Example 159, (5S,8S)-N-(2,3-dichlorobenzyl)-5-fluoro-8-hydroxy-5,6,7,8-tetrahydroquinoline-5-carboxamide] are less than 1 µM and less than 0.05 µM.
In the same order, the values of `O=C(NCc1ccc(F)cc1Cl)[C@]1(F)CC[C@](O)(CO)c2ncccc21` [Example 307, (5S,8R)-N-(2-chloro-4-fluorobenzyl)-5-fluoro-8-hydroxy-8-(hydroxymethyl)-5,6,7,8-tetrahydroquinoline-5-carboxamide] are less than 1 µM and 0.301 to 1 µM.
`O=C(NCc1c(Cl)cc(Cl)cc1CO)[C@]1(F)CC[C@@H](O)c2ncccc21` [Example 104]: the IC50 at rat P2X7 is less than 1 µM; against human P2X7, less than 0.05 µM.
In the same order, the values of `O=C(NCC1(N2CCOCC2)CCCCC1)[C@]1(F)CC[C@H](O)c2ncccc21` [Example 192, (5S,8S)-5-fluoro-8-hydroxy-N-((1-morpholinocyclohexyl)methyl)-5,6,7,8-tetrahydroquinoline-5-carboxamide] are less than 1 µM and less than 0.05 µM.
Consider `O=C(NCc1cccc(Cl)c1Cl)C1(F)CCC(O)(CO)c2ncccc21` (stereo not shown) [Example 36, N-(2,3-dichlorobenzyl)-5-fluoro-8-hy-droxy-8-(hydroxymethyl)-5,6,7,8-tetra-hydroquinoline-5-carboxamide], for which the IC50 on rat P2X7 is less than 1 µM; on human P2X7 it was less than 0.05 µM.
The like results for `O=C(NCc1cc(F)cc(Cl)c1)[C@]1(F)CC[C@H](O)c2ncccc21` [Example 203, (5S,8S)-N-(3-chloro-5-fluorobenzyl)-5-fluoro-8-hydroxy-5,6,7,8-tetrahydroquinoline-5-carboxamide] were, in that order, less than 1 µM and 0.05 to 0.1 µM.
Turning to `C[C@]1(O)CC[C@@](F)(C(=O)NCc2ccc(F)cc2F)c2cccnc21` [Example 263, (5S,8S)-N-(2,4-difluorobenzyl)-5-fluoro-8-hydroxy-8-methyl-5,6,7,8-tetrahydroquinoline-5-carboxamide], the IC50 on rat P2X7 was less than 1 µM; against human P2X7, less than 0.05 µM.
In the same order, the values of `COC[C@]1(O)CC[C@@](F)(C(=O)NCc2ccc(F)cc2Cl)c2cccnc21` (relative stereo) [Example 42, (5S*,8S*)-N-(2-chloro-4-fluoro-benzyl)-5-fluoro-8-hydroxy-8-(methoxymethyl)-5,6,7,8-tetra-hydroquinoline-5-carboxamide] are less than 1 µM and less than 0.05 µM.
The like results for `O=C(NCc1ccc(F)cc1F)[C@]1(F)CC[C@H](O)c2ncccc21` [Example 141, (5S,8S)-N-(2,4-difluorobenzyl)-5-fluoro-8-hydroxy-5,6,7,8-tetrahydroquinoline-5-carboxamide] were, in that order, less than 1 µM and less than 0.05 µM.
In the same order, the values of `O=C(NC1COc2cc(Cl)cc(Cl)c21)[C@]1(F)CC[C@H](O)c2ncccc21` (stereo partly drawn) [Example 229, (5S,8S)-N-(4,6-dichloro-2,3-dihydrobenzofuran-3-yl)-5-fluoro-8-hydroxy-5,6,7,8-tetrahydroquinoline-5-carboxamide] are less than 1 µM and less than 0.05 µM.
